Measurements: ChEMBL document CHEMBL4177590, “Design, synthesis and biological evaluation of WZ4002 analogues as EGFR inhibitors” (Bioorg Med Chem Lett, 2017)

Legend:
NCI-H460 [1] = assay: Potency index, ratio of gefitinib IC50 to compound IC50 for human NCI-H460 cells; format: functional
NCI-H460 [2] = assay: Potency index, ratio of WZ4002 IC50 to compound IC50 for human NCI-H460 cells; format: functional

SMILES	Ratio IC50 (NCI-H460 [1])	Ratio IC50 (NCI-H460 [2])
COc1cc(N2CCN(C)CC2)ccc1Nc1ncc(Cl)c(Oc2ccccc2NC(=O)CCO)n1	6 - 10	6 - 10
COc1cc(N2CCN(C)CC2)ccc1Nc1ncc(Cl)c(Oc2ccccc2NC(=O)CO)n1	6 - 10	6 - 10
COc1cc(N2CCN(C)CC2)ccc1Nc1ncc(Cl)c(Oc2ccccc2NC(=O)COCc2ccccc2)n1	6 - 10	6 - 10
COc1cc(N2CCN(C)CC2)ccc1Nc1ncc(Cl)c(Oc2ccccc2NC(=O)CCOCc2ccccc2)n1	6 - 10	6 - 10
